Assay results taken from ChEMBL document CHEMBL5724914, “Linking interpersonal differences in gut microbiota composition and drug biotransformation activity” (2024).
One block for each compound: values may come before it.

Assays:
[1] = The drug is tested on Z-022 corresponding to mouse gut metagenome with ENA study accession number: PRJEB37062 and ENA sample accession number: ERS12561821 for biotransformation under anaerobic condition. The drug concentrations were measured over 9 timepoints collected between 0 and 24 hours of incubation by liquid-chromatography-coupled mass spectrometry (LC–MS); details: 2 µM
[2] = The drug is tested on Z-018 corresponding to pig gut metagenome with ENA study accession number: PRJEB37062 and ENA sample accession number: ERS12561817 for biotransformation under anaerobic condition. The drug concentrations were measured over 9 timepoints collected between 0 and 24 hours of incubation by liquid-chromatography-coupled mass spectrometry (LC–MS); details: 2 µM
[3] = The drug is tested on Z-004 corresponding to metagenome with ENA study accession number: PRJEB37062 and ENA sample accession number: ERS12561804 for biotransformation under anaerobic condition. The drug concentrations were measured over 9 timepoints collected between 0 and 24 hours of incubation by liquid-chromatography-coupled mass spectrometry (LC–MS); details: 2 µM
[4] = The drug is tested on Z-002 corresponding to rabbit gut metagenome with ENA study accession number: PRJEB37062 and ENA sample accession number: ERS12561802 for biotransformation under anaerobic condition. The drug concentrations were measured over 9 timepoints collected between 0 and 24 hours of incubation by liquid-chromatography-coupled mass spectrometry (LC–MS); details: 2 µM
[5] = The drug is tested on Z-001 corresponding to mouse gut metagenome with ENA study accession number: PRJEB37062 and ENA sample accession number: ERS12561801 for biotransformation under anaerobic condition. The drug concentrations were measured over 9 timepoints collected between 0 and 24 hours of incubation by liquid-chromatography-coupled mass spectrometry (LC–MS); details: 2 µM
[6] = The drug is tested on WLS-370 corresponding to human gut metagenome with ENA study accession number: PRJEB37062 and ENA sample accession number: ERS12561793 for biotransformation under anaerobic condition. The drug concentrations were measured over 9 timepoints collected between 0 and 24 hours of incubation by liquid-chromatography-coupled mass spectrometry (LC–MS); details: 2 µM
[7] = The drug is tested on WLS-240 corresponding to human gut metagenome with ENA study accession number: PRJEB37062 and ENA sample accession number: ERS12561773 for biotransformation under anaerobic condition. The drug concentrations were measured over 9 timepoints collected between 0 and 24 hours of incubation by liquid-chromatography-coupled mass spectrometry (LC–MS); details: 2 µM
[8] = The drug is tested on WLS-220 corresponding to human gut metagenome with ENA study accession number: PRJEB37062 and ENA sample accession number: ERS12561769 for biotransformation under anaerobic condition. The drug concentrations were measured over 9 timepoints collected between 0 and 24 hours of incubation by liquid-chromatography-coupled mass spectrometry (LC–MS); details: 2 µM
[9] = The drug is tested on WLS-082 corresponding to human gut metagenome with ENA study accession number: PRJEB37062 and ENA sample accession number: ERS12561751 for biotransformation under anaerobic condition. The drug concentrations were measured over 9 timepoints collected between 0 and 24 hours of incubation by liquid-chromatography-coupled mass spectrometry (LC–MS); details: 2 µM
[10] = The drug is tested on WLS-052 corresponding to human gut metagenome with ENA study accession number: PRJEB37062 and ENA sample accession number: ERS12561747 for biotransformation under anaerobic condition. The drug concentrations were measured over 9 timepoints collected between 0 and 24 hours of incubation by liquid-chromatography-coupled mass spectrometry (LC–MS); details: 2 µM
[11] = human gut metagenome, 24 h, 2 µM
[12] = human gut metagenome, 24 h, 2 µM; remark: listed apart in the source
[13] = human gut metagenome, 24 h, 2 µM; remark: listed apart in the source
[14] = human gut metagenome, 24 h, 2 µM; remark: listed apart in the source
[15] = human gut metagenome, 24 h, 2 µM; remark: listed apart in the source
[16] = human gut metagenome, 24 h, 2 µM; remark: listed apart in the source
[17] = human gut metagenome, 24 h, 2 µM; remark: listed apart in the source
[18] = human gut metagenome, 24 h, 2 µM; remark: listed apart in the source
[19] = human gut metagenome, 24 h, 2 µM; remark: listed apart in the source
[20] = human gut metagenome, 24 h, 2 µM; remark: listed apart in the source
Note: call rule not given here.

Compound: C#C[C@]1(OC(C)=O)CC[C@H]2[C@@H]3CCC4=C[C@@H](OC(C)=O)CC[C@@H]4[C@H]3CC[C@@]21C [ETHYNODIOL DIACETATE]
Bacterial Biotransformation [1]: Compound metabolized
Bacterial Biotransformation [2]: Compound metabolized
Bacterial Biotransformation [3]: Compound metabolized
Bacterial Biotransformation [4]: Compound metabolized
Bacterial Biotransformation [5]: Compound metabolized
Bacterial Biotransformation [6]: Compound metabolized
Bacterial Biotransformation [7]: Compound metabolized
Bacterial Biotransformation [8]: Compound metabolized
Bacterial Biotransformation [9]: Compound metabolized
Bacterial Biotransformation [10]: Compound metabolized
Bacterial Biotransformation [11]: Compound metabolized
Bacterial Biotransformation [12]: Compound metabolized
Bacterial Biotransformation [13]: Compound metabolized
Bacterial Biotransformation [14]: Compound metabolized
Bacterial Biotransformation [15]: Compound metabolized
Bacterial Biotransformation [16]: Compound metabolized
Bacterial Biotransformation [17]: Compound metabolized
Bacterial Biotransformation [18]: Compound metabolized
Bacterial Biotransformation [19]: Compound metabolized
Bacterial Biotransformation [20]: Compound metabolized

Compound: C=CC[C@@H]1/C=C(\C)C[C@H](C)C[C@H](OC)[C@H]2O[C@@](O)(C(=O)C(=O)N3CCCC[C@H]3C(=O)O[C@H](/C(C)=C/[C@@H]3CC[C@@H](O)[C@H](OC)C3)[C@H](C)[C@@H](O)CC1=O)[C@H](C)C[C@@H]2OC.O [TACROLIMUS]
Bacterial Biotransformation [1]: Compound NOT metabolized
Bacterial Biotransformation [2]: Compound NOT metabolized
Bacterial Biotransformation [3]: Compound NOT metabolized
Bacterial Biotransformation [4]: Compound metabolized
Bacterial Biotransformation [5]: Compound NOT metabolized
Bacterial Biotransformation [6]: Compound metabolized
Bacterial Biotransformation [7]: Compound metabolized
Bacterial Biotransformation [8]: Compound metabolized
Bacterial Biotransformation [9]: Compound metabolized
Bacterial Biotransformation [10]: Compound metabolized
Bacterial Biotransformation [11]: Compound metabolized
Bacterial Biotransformation [12]: Compound metabolized
Bacterial Biotransformation [13]: Compound metabolized
Bacterial Biotransformation [14]: Compound metabolized
Bacterial Biotransformation [15]: Compound metabolized
Bacterial Biotransformation [16]: Compound metabolized
Bacterial Biotransformation [17]: Compound metabolized
Bacterial Biotransformation [18]: Compound metabolized
Bacterial Biotransformation [19]: Compound metabolized
Bacterial Biotransformation [20]: Compound metabolized

Compound: CC(=O)OCC(=O)[C@@]1(OC(C)=O)[C@@H](C)C[C@H]2[C@@H]3C[C@H](F)C4=CC(=O)C=C[C@]4(C)[C@@]3(F)[C@@H](O)C[C@@]21C [DIFLORASONE DIACETATE]
Bacterial Biotransformation [1]: Compound NOT metabolized
Bacterial Biotransformation [2]: Compound metabolized
Bacterial Biotransformation [3]: Compound NOT metabolized
Bacterial Biotransformation [4]: Compound metabolized
Bacterial Biotransformation [5]: Compound metabolized
Bacterial Biotransformation [6]: Compound metabolized
Bacterial Biotransformation [7]: Compound metabolized
Bacterial Biotransformation [8]: Compound metabolized
Bacterial Biotransformation [9]: Compound metabolized
Bacterial Biotransformation [10]: Compound metabolized
Bacterial Biotransformation [11]: Compound metabolized
Bacterial Biotransformation [12]: Compound metabolized
Bacterial Biotransformation [13]: Compound metabolized
Bacterial Biotransformation [14]: Compound metabolized
Bacterial Biotransformation [15]: Compound metabolized
Bacterial Biotransformation [16]: Compound metabolized
Bacterial Biotransformation [17]: Compound metabolized
Bacterial Biotransformation [18]: Compound metabolized
Bacterial Biotransformation [19]: Compound metabolized
Bacterial Biotransformation [20]: Compound metabolized

Compound: COc1ccc(/C=C/C(=O)Nc2ccccc2C(=O)O)cc1OC
Bacterial Biotransformation [1]: Compound metabolized
Bacterial Biotransformation [2]: Compound metabolized
Bacterial Biotransformation [3]: Compound NOT metabolized
Bacterial Biotransformation [4]: Compound metabolized
Bacterial Biotransformation [5]: Compound NOT metabolized
Bacterial Biotransformation [6]: Compound NOT metabolized
Bacterial Biotransformation [8]: Compound NOT metabolized
Bacterial Biotransformation [9]: Compound metabolized
Bacterial Biotransformation [10]: Compound metabolized
Bacterial Biotransformation [11]: Compound NOT metabolized
Bacterial Biotransformation [12]: Compound metabolized
Bacterial Biotransformation [13]: Compound NOT metabolized
Bacterial Biotransformation [14]: Compound NOT metabolized
Bacterial Biotransformation [15]: Compound NOT metabolized
Bacterial Biotransformation [16]: Compound NOT metabolized
Bacterial Biotransformation [17]: Compound metabolized
Bacterial Biotransformation [18]: Compound NOT metabolized
Bacterial Biotransformation [19]: Compound NOT metabolized
Bacterial Biotransformation [20]: Compound metabolized

The next lines start with the values.

Bacterial Biotransformation [1]: Compound NOT metabolized
Bacterial Biotransformation [2]: Compound metabolized
Bacterial Biotransformation [3]: Compound NOT metabolized
Bacterial Biotransformation [4]: Compound NOT metabolized
Bacterial Biotransformation [5]: Compound NOT metabolized
Bacterial Biotransformation [6]: Compound metabolized
Bacterial Biotransformation [7]: Compound metabolized
Bacterial Biotransformation [8]: Compound metabolized
Bacterial Biotransformation [9]: Compound metabolized
Bacterial Biotransformation [10]: Compound metabolized
Bacterial Biotransformation [11]: Compound metabolized
Bacterial Biotransformation [12]: Compound metabolized
Bacterial Biotransformation [13]: Compound metabolized
Bacterial Biotransformation [14]: Compound metabolized
Bacterial Biotransformation [15]: Compound metabolized
Bacterial Biotransformation [16]: Compound NOT metabolized
Bacterial Biotransformation [17]: Compound metabolized
Bacterial Biotransformation [18]: Compound metabolized
Bacterial Biotransformation [20]: Compound NOT metabolized
Compound: CC1=C(CC(=O)O)c2cc(F)ccc2/C1=C\c1ccc([S+](C)[O-])cc1 (stereo unspecified)

Bacterial Biotransformation [1]: Compound metabolized
Bacterial Biotransformation [2]: Compound NOT metabolized
Bacterial Biotransformation [3]: Compound NOT metabolized
Bacterial Biotransformation [4]: Compound metabolized
Bacterial Biotransformation [5]: Compound metabolized
Bacterial Biotransformation [6]: Compound metabolized
Bacterial Biotransformation [7]: Compound metabolized
Bacterial Biotransformation [8]: Compound metabolized
Bacterial Biotransformation [9]: Compound metabolized
Bacterial Biotransformation [10]: Compound metabolized
Bacterial Biotransformation [11]: Compound metabolized
Bacterial Biotransformation [12]: Compound metabolized
Bacterial Biotransformation [13]: Compound metabolized
Bacterial Biotransformation [14]: Compound metabolized
Bacterial Biotransformation [15]: Compound metabolized
Bacterial Biotransformation [16]: Compound metabolized
Bacterial Biotransformation [17]: Compound metabolized
Bacterial Biotransformation [19]: Compound metabolized
Compound: N#Cc1ccc2[nH]cc(CCCCN3CCN(c4ccc5oc(C(N)=O)cc5c4)CC3)c2c1 [VILAZODONE]
